A short description of the data set: Tolerability of high, cumulative doses in asthmatic patients on maintenance treatment with the combination (double blind clinical comparison study). Particulars: 10 puffs cumulative dose in addition to morning maintenance dose (2 puffs), assessed over 12 hours after dosing, vs placebo / comparator.

Method: A study is performed to evaluate the tolerability of high, cumulative doses of the combination formoterol/beclometasone dipropionate or formoterol compared to a placebo when administered in asthmatic patients on regular treatment with the combination at the maximum recommended daily dose (6 microgram of formoterol/100 microgram beclometasone dipropionate, 2 puffs bid.: corresponding to a total daily dose of 24 microgram of formoterol and of 400 microgram of beclometasone dipropionate). The study is a double blind clinical comparison study of ten puffs of the pressurized metered dose inhaler solution formulation of the combination of Example 1 (formoterol 6 microgram+beclometasone dipropionate 100 microgram) or formoterol (6 microgram) or placebo during the maintenance treatment of asthma with 2 puffs bid. of the combination formoterol/beclometasone dipropionate of Example 1.
Cumulative doses (10 puffs) are administered on 3 separated days in addition to the morning dose maintenance (2 puffs). The primary endpoint is serum potassium, assessed over a 12 hours period after the cumulative doses.

As to `COc1ccc(CC(C)NCC(O)c2ccc(O)c(NC=O)c2)cc1` (racemic) [Formoterol, (±) N-[2-hydroxy-5-(1-hydroxy-2-((2-(4-methoxyphenyl)-1-methylethyl)amino)ethyl)phenyl]formamide], the serum potassium level result is listed as “significantly greater decrease in serum potassium level than the combination or placebo”. Also, under “listed as formoterol”, the serum potassium level result was “significantly greater decrease in serum potassium level than the either the combination or the placebo”.

The values are drawn from patent US20080261932A1, “METHODS AND COMPOSITIONS FOR THE PREVENTION AND/OR TREATMENT OF AN EX[…] ASTHMA” (Chiesi Farmaceutici S.p.A., priority 2007, published 2008).
